# Reference: ChEMBL document CHEMBL5584334, “Discovery of a Covalent Inhibitor of Pro-Caspase-1 Zymogen Blocking NLRP3 Inflammasome Activation and Pyroptosis” (J Med Chem, 2024)
# The source made the active and inactive calls. The calls are words filed in the database; no cut-off is given here.
# Experiments:
# [1] = target: NACHT, LRR and PYD domains-containing protein 3 (Mus musculus) (UniProt Q8R4B8); assay: Inhibition of NLRP3 inflammasome activation activation in LPS/nigericin stimulated mouse J774.A1 cells assessed as reduction in IL-1beta production pretreated with LPS for 3 hrs prior to compound addition for 30 mins followed by nigericin addition and measured after 45 mins by ELISA; type: cell-based; details: dose 0.001-2000 nM, time 75.0 min
# Chain of NACHT, LRR and PYD domains-containing protein 3 (Mus musculus) (Q8R4B8 whole entry, the tested form may be a part): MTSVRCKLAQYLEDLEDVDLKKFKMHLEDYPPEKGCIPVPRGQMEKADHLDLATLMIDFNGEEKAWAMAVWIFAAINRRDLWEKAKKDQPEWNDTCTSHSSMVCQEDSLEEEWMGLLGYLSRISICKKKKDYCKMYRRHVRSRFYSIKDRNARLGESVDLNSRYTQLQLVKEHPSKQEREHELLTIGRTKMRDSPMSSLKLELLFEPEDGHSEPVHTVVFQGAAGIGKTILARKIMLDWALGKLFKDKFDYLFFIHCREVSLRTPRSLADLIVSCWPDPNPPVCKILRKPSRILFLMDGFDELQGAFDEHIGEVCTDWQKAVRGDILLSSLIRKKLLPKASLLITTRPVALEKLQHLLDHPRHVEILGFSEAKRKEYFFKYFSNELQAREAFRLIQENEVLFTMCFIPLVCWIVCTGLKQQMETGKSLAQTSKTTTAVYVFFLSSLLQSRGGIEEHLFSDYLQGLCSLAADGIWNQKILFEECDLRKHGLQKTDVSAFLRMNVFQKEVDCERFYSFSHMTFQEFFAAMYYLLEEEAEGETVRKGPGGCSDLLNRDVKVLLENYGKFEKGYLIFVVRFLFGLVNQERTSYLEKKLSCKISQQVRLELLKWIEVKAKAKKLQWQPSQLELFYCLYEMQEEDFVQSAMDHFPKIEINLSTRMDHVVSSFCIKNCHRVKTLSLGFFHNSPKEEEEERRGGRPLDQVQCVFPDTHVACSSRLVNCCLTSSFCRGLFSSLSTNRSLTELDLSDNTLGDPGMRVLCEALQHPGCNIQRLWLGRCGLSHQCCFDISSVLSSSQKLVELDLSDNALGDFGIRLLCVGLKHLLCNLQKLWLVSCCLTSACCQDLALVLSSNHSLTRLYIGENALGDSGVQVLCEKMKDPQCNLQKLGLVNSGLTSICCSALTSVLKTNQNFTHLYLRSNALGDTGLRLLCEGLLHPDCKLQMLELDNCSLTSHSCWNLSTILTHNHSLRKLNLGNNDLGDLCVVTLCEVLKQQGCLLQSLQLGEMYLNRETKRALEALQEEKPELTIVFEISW
# [2] = target: NACHT, LRR and PYD domains-containing protein 3 (Mus musculus) (UniProt Q8R4B8); assay: Inhibition of NLRP3 inflammasome activation in mouse J774.A1 cells assessed as reduction in NLRP3 protein expression at 0.5 to 2 uM preincubated for 30 mins followed by LPS stimulation for 6 hrs by Western blotting analysis; type: cell-based; details: dose 0.5-2 µM, time 6.5 hrs
# [3] = system: Caspase-1 (Homo sapiens), P29466 [C270A]; assay: Inhibition of recombinant caspase-1 C270A mutant (unknown origin) at 100 uM relative to control
# Chain of Caspase-1 (Homo sapiens), P29466 [C270A] (P29466 whole entry C270A): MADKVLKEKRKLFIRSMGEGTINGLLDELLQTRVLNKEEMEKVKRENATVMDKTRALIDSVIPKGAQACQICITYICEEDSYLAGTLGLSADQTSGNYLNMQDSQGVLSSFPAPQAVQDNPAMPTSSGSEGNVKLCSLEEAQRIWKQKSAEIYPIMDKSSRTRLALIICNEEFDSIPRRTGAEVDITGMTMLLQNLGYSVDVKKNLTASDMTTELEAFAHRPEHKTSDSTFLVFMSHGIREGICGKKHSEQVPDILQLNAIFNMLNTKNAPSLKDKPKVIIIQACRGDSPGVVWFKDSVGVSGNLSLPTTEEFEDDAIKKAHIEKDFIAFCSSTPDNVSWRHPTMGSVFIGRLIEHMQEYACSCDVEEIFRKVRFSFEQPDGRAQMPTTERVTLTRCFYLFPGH
# J774.A1 [4] = assay: Inhibition of pyroptosis in mouse J774.A1 cells assessed as reduction in number of annexin V and PI positive cells pretreated with LPS for 3 hrs followed by compound addition in presence of nigericin by flow cytometry analysis; type: functional, cell-based
# [5] = target: NACHT, LRR and PYD domains-containing protein 3 (Mus musculus) (UniProt Q8R4B8); assay: Inhibition of NLRP3 inflammasome activation in LPS/ATP stimulated mouse J774.A1 cells assessed as reduction in IL-18 production incubated for 30 mins by ELISA; type: cell-based
# HEK293T [6] = assay: Inhibition of recombinant caspae-1 C169A mutant (unknown origin) to GSDMD (unknown origin) interaction expressed in HEK293T cells; type: cell-based; details: Homo sapiens
# Mus musculus [7] = assay: (§1) Anti-inflammatory activity in MSU/C18:0 free fatty acid induced Kunming mouse model of gouty arthritis assessed as reduction IL-1beta release at 5 to 20 mg/kg, ip preadministered with compound for 30 mins followed by MSU/C18:0 free fatty acid injection and measured after 24 hrs by ELISA; type: functional, organism-based; details: dose 5-20 mg/kg, time 24.5 hrs
# Mus musculus [8] = assay: as §1, with “NLRP3 expression” for “IL-1beta release”, “Western blotting analysis” for “ELISA”; type: functional, organism-based; details: dose 5-20 mg/kg, time 24.5 hrs
# Mus musculus [9] = organism: Mus musculus; assay: Inhibition of pain perception in MSU/C18:0 free fatty acid induced Casp1 knockout mouse measured upto 24 hrs; type: functional, organism-based
# J774.A1 [10] = assay: Inhibition of pro-caspase 1 to RIP2 interaction in LPS stimulated mouse J774.A1 cells at 1 uM by immunoprecipitation method; type: cell-based
# [11] = system: Caspase-1 (Homo sapiens), P29466 [C397A]; assay: Binding affinity to recombinant caspase-1 C397A mutant (unknown origin) at 2 uM by SDS-PAGE analysis
# Chain of Caspase-1 (Homo sapiens), P29466 [C397A] (P29466 whole entry C397A): as the sequence (P29466 whole entry C270A) above, with A270C, C397A counted along it
# Mus musculus [12] = assay: as §1, with “effect on pro-caspase-1 expression” for “reduction IL-1beta release”, “Western blotting analysis” for “ELISA”; type: functional, organism-based; details: dose 5-20 mg/kg, time 24.5 hrs
# J774.A1 [13] = assay: Inhibition of NLRP3 colocalization in LPS/nigericin stimulated mouse J774.A1 cells by fluorescent staining based assay; type: functional, cell-based
# [14] = Acute toxicity in Kunming mouse assessed as heart damage at 100 mg/kg, ip administered for 14 days; type: organism-based; details: in vivo, 336 h, time 14 day
# Mus musculus [15] = assay: Anti-inflammatory activity in MSU/C18:0 free fatty acid induced ip dosed Casp1 knockout Kunming mouse model of gouty arthritis assessed as reduction in IL-beta production preadministered with compound for 30 mins followed by MSU/C18:0 free fatty acid injection and measured after 24 hrs by ELISA; type: functional, organism-based; details: time 24.5 hrs
# [16] = Acute toxicity in Kunming mouse assessed as kidney damage at 100 mg/kg, ip administered for 14 days; type: organism-based; details: in vivo, 336 h, time 14 day
# THP-1 [17] = assay: Effect on pro-caspase 1 protein expression in LPS/ATP stimulated human THP-1 cells supernatant by Western blotting analysis; type: functional, cell-based
# HEK293T [18] = assay: Inhibition of recombinant caspae-1 C397A mutant (unknown origin) to GSDMD (unknown origin) interaction expressed in HEK293T cells; type: cell-based; details: Homo sapiens
# THP-1 [19] = assay: Effect on pro-caspase 1 protein expression in LPS/MSU stimulated human THP-1 cells supernatant by Western blotting analysis; type: functional, cell-based
# THP-1 [20] = assay: Effect on pro-1L-1beta protein expression in LPS/nigericin stimulated human THP-1 cells supernatant at 0.5 to 2 uM by Western blotting analysis; type: functional, cell-based; details: dose 0.5-2 µM
# BMDM = assay: Effect on cleaved caspase-11 expression in mouse BMDM cells at 0.5 to 2 uM pretreated with pam3CSK4 for 3 hrs followed by compound addition for 30 mins prior to cytosolic LPS stimulation for 16 hrs by ELISA; type: functional, cell-based; details: dose 0.5-2 µM, time 16.5 hrs
# Mus musculus [21] = assay: Anti-inflammatory activity in MSU/C18:0 free fatty acid induced Kunming mouse model of gouty arthritis assessed as reduction in joint swelling at 5 to 20 mg/kg, ip preadministered with compound for 30 mins followed by MSU/C18:0 free fatty acid injection and measured after 24 hrs; type: functional, organism-based; details: dose 5-20 mg/kg, time 24.5 hrs
# THP-1 [22] = assay: Effect on cleaved caspase-5 expression in human THP-1 cells at 2 uM pretreated with pam3CSK4 for 3 hrs followed by compound addition for 30 mins prior to cytosolic LPS stimulation for 16 hrs by ELISA; type: functional, cell-based; details: time 16.5 hrs
# [23] = target: NACHT, LRR and PYD domains-containing protein 3 (Mus musculus) (UniProt Q8R4B8); assay: Inhibition of NLRP3 inflammasome activation in mouse J774.A1 cells assessed as reduction in NLRP3 mRNA expression at 0.5 to 2 uM preincubated for 30 mins followed by LPS stimulation for 24 hrs by RT-qPCR analysis; type: cell-based; details: dose 0.5-2 µM, time 24.5 hrs
# [24] = Acute toxicity in Kunming mouse assessed as change in ALT level at 100 mg/kg, ip administered for 14 days; type: organism-based; details: in vivo, 336 h, time 14 day
# Mus musculus [25] = assay: Anti-inflammatory activity in LPS/MSU-induced Casp1 knockout C57BL/6 mouse model of acute peritonitis assessed as reduction in IL-1beta expression at 20 mg/kg, ip preadministered intraperitoneally with compound for 30 mins followed by MSU injection and measured after 6 hrs by ELISA; type: functional, organism-based
# [26] = target: NACHT, LRR and PYD domains-containing protein 3 (Mus musculus) (UniProt Q8R4B8); assay: Inhibition of NLRP3 inflammasome activation in LPS primed Casp1 knockout mouse BMDM cells transfected with caspase-1 C395A mutant assessed as reduction in IL-1beta release at 2 uM preincubated for 30 mins followed by nigericin stimulation; type: cell-based
# J774.A1 [27] = assay: Downregulation of IKKalpha/beta phosphorylation in mouse J774.A1 cells at 0.5 to 2 uM preincubated for 30 mins followed by LPS addition and measured after 2 hrs by Western blotting analysis; type: functional, cell-based; details: dose 0.5-2 µM, time 2.5 hrs
# HEK293T [28] = assay: Inhibition of recombinant caspae-1 C270A mutant (unknown origin) to GSDMD (unknown origin) interaction expressed in HEK293T cells; type: cell-based; details: Homo sapiens
# [29] = Acute toxicity in Kunming mouse assessed as liver damage at 100 mg/kg, ip administered for 14 days; type: organism-based; details: in vivo, 336 h, time 14 day
# [30] = target: Interferon-inducible protein AIM2 (Mus musculus) (UniProt Q91VJ1); assay: Inhibition of AIM2 inflammasome activation in mouse BMDMs assessed as reduction in caspase-1 activation at 0.5 to 2 uM primed with LPS for 3 hrs followed by incubation with compound for 30 mins and later stimulated with poly (dA:dT) for 16 hrs; type: cell-based; details: BMDM, dose 0.5-2 µM, time 16.5 hrs
# Chain of Interferon-inducible protein AIM2 (Mus musculus) (Q91VJ1 whole entry): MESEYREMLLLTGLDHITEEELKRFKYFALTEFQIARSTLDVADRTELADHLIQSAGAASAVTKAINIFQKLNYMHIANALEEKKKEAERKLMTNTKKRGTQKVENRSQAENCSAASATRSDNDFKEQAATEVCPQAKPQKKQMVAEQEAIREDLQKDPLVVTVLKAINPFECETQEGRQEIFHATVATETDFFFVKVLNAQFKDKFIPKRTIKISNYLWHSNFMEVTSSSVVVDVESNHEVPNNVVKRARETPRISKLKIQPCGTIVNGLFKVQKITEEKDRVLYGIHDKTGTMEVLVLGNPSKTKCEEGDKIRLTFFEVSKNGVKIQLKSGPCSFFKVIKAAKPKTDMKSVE
# HEK293T [31] = assay: Inhibition of recombinant caspae-1 C285A mutant (unknown origin) to GSDMD (unknown origin) interaction expressed in HEK293T cells; type: cell-based; details: Homo sapiens
compound,measurement,setting,value
COc1ccc2c(c1)[C@]1(C=C[C@H](N=C=S)C[C@H]1C(=O)OC(C)(C)C)C(=O)N2C(=O)OCc1ccccc1,inhibition,[1],Dose-Dependent Effect
same,inhibition,[2],Active
same,inhibition,[3],inactive
same,inhibition,J774.A1 [4],Active
same,inhibition,[5],Active
same,inhibition,HEK293T [6],Active
same,Activity,Mus musculus [7],Active
same,Activity,Mus musculus [8],Active
same,inhibition,Mus musculus [9],inactive
same,inhibition,J774.A1 [10],Active
same,Activity,[11],inactive
same,Activity,Mus musculus [12],inactive
same,inhibition,J774.A1 [13],Active
same,Activity,[14],Non-Toxic
same,Activity,Mus musculus [15],inactive
same,Activity,[16],Non-Toxic
same,Activity,THP-1 [17],inactive
same,inhibition,HEK293T [18],inactive
same,Activity,THP-1 [19],inactive
same,Activity,THP-1 [20],inactive
same,Activity,BMDM,inactive
same,Activity,Mus musculus [21],Active
same,Activity,THP-1 [22],inactive
same,inhibition,[23],Active
same,Activity,[24],Non-Toxic
same,Activity,Mus musculus [25],inactive
same,inhibition,[26],inactive
same,Activity,J774.A1 [27],Active
same,inhibition,HEK293T [28],Active
same,Activity,[29],Non-Toxic
same,inhibition,[30],Active
same,inhibition,HEK293T [31],inactive
